# Data: patent publication US20240018132A1, “5-HYDROXY-1,4-NAPHTHALENEDIONE FOR USE IN THE TREATMENT OF CANCER” (GODAVARI BIOREFINERIES LIMITED, priority 2020, published 2024)
# Assays:
# [1] = system: Aldehyde dehydrogenase (ALDH); experiment: Aldehyde Dehydrogenase (ALDH) assay, ELISA kit; type: cell-based; conditions: MDAMB231, 48 hrs
# Text: Aldehyde dehydrogenases (ALDH) are a family of enzymes that catalyze the metabolism of exogenous and endogenous aldehydes, preventing the accumulation of potentially reactive and toxic aldehydes and their metabolites. In addition to their role in aldehyde metabolism, ALDH enzymes also play critical roles in other cellular processes such as cell proliferation, differentiation, and survival. ALDH also serves as a marker for certain stem cell populations including hematopoietic stem cells and certain cancer stem cells. ALDH concentration was determined by using ([…] Dx) ELISA kit by following protocol: • 1 Standards (50 μl)/sample (40 μl) were added to the respective wells, (except Blank). • 2. (10 μl) Antibody-Biotin conjugate was then added in each sample well (except Blank). • 3. (50 μl) of Horse Radish Peroxidase (HRP) Conjugate was then added to each well (except Blank). • 4. The plates were incubated for one hour at 37° C. in the incubator. • 5. Wash (4 times with wash buffer) and blot residual buffer by firmly tapping the plate on the absorbent paper. Wipe off any liquid from the bottom of the microtiter wells as any residue can interfere in the reading step. • 6. Add TMB substrate A (50 μl) and then TMB substrate B (50 μl) to each well including Blank as well. • 7. Incubate for 10 mins at 37° C. in dark. • 8. Add (50 μl) stop solution. Wells should turn from blue to yellow. • 9. Read absorbance at 450 nm. • 10 A X-Y graph of concentration vs optical density was plotted. ALDH concentration was calculated by substituting optical density values in the regression analysis equation.
# PC3 [2] = experiment: In vitro sphere-forming assay (cancer stem cells), Prostosphere media; conditions: for 3D sphere count of PC3: Prostosphere media, 2000 cells/well, n = 6 ± S.D
# Procedure: In Vitro Sphere-forming Assay: Sphere assay measures the ability of cancer stem cells (CSCs) to form spheres in specially designed serum-free medium.
# Prostosphere Media Preparation (For 100 mL):1 g methyl cellulose autoclaved with magnetic stirrer, 100 mL plain media (Prostate Epithelial Basal Medium) was added and dissolved, under magnetic stirring. After complete dissolution, Insulin-40 μL, B27-2 mL, EGF-80 μL, Penstrep-1 ml was added.
# Procedure—The cells were trypsinised and made into single-cell suspension by passing through cell strainers (100 μl and 40 μl, respectively), The cells were diluted at a concentration of 2000 cells/100 μL and suspended in either Mammosphere (for breast cell lines) or Prostosphere (for prostate cell lines). 100 μL of this suspension was added into each well of 96-well suspension plates and incubated at 37° C., 5% CO2 for 24 hrs. Appropriate concentrations of the drugs (2 μL) were added into respective wells with 100 μL of stem cell culture medium. Plates were incubated at 37° C., 50 CO2 for 72 hrs. After incubation, 2.5 μL of the respective drug concentration and 50 μL of stem cell culture medium were added into each well and the plates were further incubated at 37° C., 50% CO2 for 72 hrs. 3 μL of the respective drug concentration was added with 50 μL of stem cell culture medium again after incubation and plates were reincubated for 72 hrs at 37° C., 50 CO2. Number of primary spheres formed for each concentration were counted. The spheres were converted to 0 viability of spheres compared to untreated (Growth Control with DMSO, GCD).
# PC3 [3] = experiment: Wound Healing Assay (WHA), prostate cancer cell line; type: cell-based; conditions: IC10 conc. of compound
# Protocol: Wound Healing Assay (WHA) determines the ability of cancer stem cells to heal the wound formed in a confluent monolayer.
# Procedure: 0.35×10^6 cells were plated in each well of 6 Tissue Culture well plates. The plate was incubated for 48 hrs at 37° C., 5% CO2. […] IC10 conc. of the respective compound was added into each well. The plates were incubated at 37° C., 5% CO2 and the width of scratch was measured at various time intervals such as 6, 24 and 48 hours. Average of 3 distances were taken for each time point using IS camera Measure. A plot of average width of scratch in micrometer was plotted against the time interval after treatment.
# [4] = Homo sapiens, PC-3, read-out: % Viability of spheres (PC3)
smiles,measurement,setting,value
"O=C1C(c2ccc3c(c2)OCO3)=CC(=O)c2c(OCCCCN3CCOCC3)cccc21 [Formula 2, 5-(4-morpholinobutoxy)-2-(benzo[d][1,3]dioxol-6-yl)naphthalene-1,4-dione]",% inhibition of ALDH on Breast Cancer Cell line (MDAMB231) after 48 hrs,[1],76.09%
same,viability at 0.025 µM,PC3 [2]; [4],77%
same,viability at 0.25 µM,PC3 [2]; [4],65%
same,viability at 2.5 µM,PC3 [2]; [4],39%
same,viability at 25 µM,PC3 [2]; [4],21%
same,viability at 250 µM,PC3 [2]; [4],10%
same,3D sphere count of PC3,PC3 [2]; drug 0.025 uM,63(±4)
same,3D sphere count of PC3,PC3 [2]; drug 0.25 uM,53(±3)
same,3D sphere count of PC3,PC3 [2]; drug 2.5 uM,32(±4)
same,3D sphere count of PC3,PC3 [2]; drug 25 uM,17(±3)
same,3D sphere count of PC3,PC3 [2]; drug 250 uM,8(±2)
same,% inhibition of Wound Healing for Prostate Cancer Cell line (PC3) after 48 hrs,PC3 [3],45.25%
O=C1C(NC2CCCCC2)=CC(=O)c2c(OCCN3CCOCC3)cccc21 [Formula 52],% inhibition of ALDH on Breast Cancer Cell line (MDAMB231) after 48 hrs,[1],74.69%
same,viability at 0.0025 µM,PC3 [2]; [4],87%
same,viability at 0.025 µM,PC3 [2]; [4],77%
same,viability at 0.25 µM,PC3 [2]; [4],62%
same,viability at 2.5 µM,PC3 [2]; [4],49%
same,viability at 25 µM,PC3 [2]; [4],30%
same,3D sphere count of PC3,PC3 [2]; drug 0.0025 uM,71(±3)
same,3D sphere count of PC3,PC3 [2]; drug 0.025 uM,63(±4)
same,3D sphere count of PC3,PC3 [2]; drug 0.25 uM,51(±3)
same,3D sphere count of PC3,PC3 [2]; drug 2.5 uM,40(±4)
same,3D sphere count of PC3,PC3 [2]; drug 25 uM,25(±3)
same,% inhibition of Wound Healing for Prostate Cancer Cell line (PC3) after 48 hrs,PC3 [3],34.7%
"COc1ccc(NC2=CC(=O)c3c(OCCN4CCOCC4)cccc3C2=O)cc1OC [Formula 40, 5-(2-morpholinoethoxy)-2-(3,4-dimethoxyphenylamino) naphthalene-1,4-dione]",% inhibition of ALDH on Breast Cancer Cell line (MDAMB231) after 48 hrs,[1],62.73%
same,viability at 0.0025 µM,PC3 [2]; [4],80%
same,viability at 0.025 µM,PC3 [2]; [4],65%
same,viability at 0.25 µM,PC3 [2]; [4],47%
same,viability at 2.5 µM,PC3 [2]; [4],34%
same,viability at 25 µM,PC3 [2]; [4],17%
same,3D sphere count of PC3,PC3 [2]; drug 0.0025 uM,70(±5)
same,3D sphere count of PC3,PC3 [2]; drug 0.025 uM,57(±3)
same,3D sphere count of PC3,PC3 [2]; drug 0.25 uM,41(±3)
same,3D sphere count of PC3,PC3 [2]; drug 2.5 uM,30(±3)
same,3D sphere count of PC3,PC3 [2]; drug 25 uM,15(±3)
same,% inhibition of Wound Healing for Prostate Cancer Cell line (PC3) after 48 hrs,PC3 [3],48.56%
